Some test systems named below: A549; CCRF-CEM; SW-620; SNB-19; HT-29; IGROV-1; LOX IMVI; COLO 205; OVCAR-4; RPMI-8226; SK-OV-3; MOLT-4; OVCAR-8; A498; SF-295; SK-MEL-28; U-251; OVCAR-5; UACC-257; SK-MEL-2.
Common to all, as to experiment: inhibition of tumour cell growth, NCI panel, 48 h

Structures are written as SMILES.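 Method: 48-hour compound exposure of cells in 96-well plates, five concentrations, linear interpolation of endpoints. Here, GI50 denotes the concentration required for 50% inhibition of growth.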 Calls of active or inactive are those of the source. No stated cut-off is given here; in the data, active = GI50 up to about 1.1 µM and inactive = higher.

As for `CC(C)N1CSC(=S)N(Cc2ccccc2)C1`, the GI50 in the experiment with A549 was > 10 µM (inactive); in the experiment on CCRF-CEM it was 2.78 µM (inactive); in the experiment with SW-620 it was 3.18 µM (inactive); in the experiment on SNB-19 it was 0.752 µM (active); with HT-29, 2.43 µM (inactive); with IGROV-1 it was > 10 µM (inactive). Besides, the GI50 is 3.66 µM (inactive) with LOX IMVI; 3.94 µM (inactive) in the experiment on COLO 205; > 10 µM (inactive) with OVCAR-4; 2.58 µM (inactive) with RPMI-8226; > 10 µM (inactive) with SK-OV-3; 2.63 µM (inactive) with MOLT-4. In addition, the GI50 in the experiment with OVCAR-8 was 4.75 µM (inactive); in the experiment on A498, > 10 µM (inactive); in the experiment on SF-295, > 10 µM (inactive); in the experiment with SK-MEL-28, 3.78 µM (inactive); with U-251, > 10 µM (inactive).
For the compound `S=CN1CCCCC1`, the GI50 with A549, in the experiment on CCRF-CEM, with OVCAR-5, in the experiment on SW-620, in the experiment with SNB-19 and with HT-29 was > 100 µM (inactive) throughout. The GI50 with IGROV-1, with LOX IMVI, in the experiment with COLO 205, in the experiment on RPMI-8226, in the experiment on SK-OV-3 and in the experiment with MOLT-4 was > 100 µM (inactive) each time. Besides, the GI50 in the experiment on OVCAR-8, in the experiment with UACC-257, with A498, with SF-295, with SK-MEL-28 and in the experiment on U-251 was > 100 µM (inactive) in each case. The GI50 with SK-MEL-2 is > 100 µM (inactive).
Regarding `N#C/C(=C\NC(=S)Nc1ccc(S(=O)(=O)Nc2ccccn2)cc1)C(N)=O`, the GI50 in the experiment on A549 is > 100 µM (inactive); in the experiment on CCRF-CEM, 42.2 µM (inactive); in the experiment on OVCAR-5, > 100 µM (inactive); in the experiment on SW-620 it was > 100 µM (inactive); in the experiment with SNB-19, > 100 µM (inactive); in the experiment with HT-29, > 100 µM (inactive). In addition, the GI50 in the experiment on IGROV-1, with LOX IMVI, in the experiment on COLO 205, in the experiment on OVCAR-4, with RPMI-8226 and in the experiment on SK-OV-3 was > 100 µM (inactive) throughout. Besides, the GI50 in the experiment with MOLT-4 is 25.5 µM (inactive); in the experiment on OVCAR-8 it was > 100 µM (inactive); in the experiment with UACC-257, > 100 µM (inactive); in the experiment with A498 it was > 100 µM (inactive); with SF-295, > 100 µM (inactive); in the experiment on SK-MEL-28, > 100 µM (inactive). In addition, the GI50 in the experiment on U-251 and in the experiment on SK-MEL-2 was > 100 µM (inactive) throughout.
Turning to `CCOC(=O)C1=C(C)N(c2ccc(OC)cc2)C2(O)C=CC(O)=C3C(=O)c4ccccc4C(=O)C312` (stereo not given), the GI50 with A549 was 11.1 µM (inactive); in the experiment with CCRF-CEM it was 3.4 µM (inactive); in the experiment on OVCAR-5, 15.8 µM (inactive); with SW-620, 13.5 µM (inactive); with SNB-19, 13 µM (inactive); in the experiment with HT-29, 17.9 µM (inactive). The GI50 in the experiment on IGROV-1 was 3.56 µM (inactive); with LOX IMVI, 7.16 µM (inactive); with COLO 205 it was 11.5 µM (inactive); in the experiment on OVCAR-4, 2.99 µM (inactive); in the experiment on RPMI-8226 it was 2.44 µM (inactive); with SK-OV-3, 13.4 µM (inactive). Also, the GI50 is 3.89 µM (inactive) in the experiment with MOLT-4; 14.9 µM (inactive) with OVCAR-8; 15.7 µM (inactive) in the experiment on UACC-257; 10.5 µM (inactive) in the experiment on A498; 8.77 µM (inactive) in the experiment with SF-295; 8.49 µM (inactive) in the experiment with U-251. Moreover, the GI50 with SK-MEL-2 is 16.3 µM (inactive).
Take `CC1(C)C(N2CCOCC2)CS1(=O)=O` (stereo not given): the GI50 in the experiment on A549, with CCRF-CEM, with OVCAR-5, with SW-620, with SNB-19 and with HT-29 was > 10 µM (inactive) in each case. Besides, the GI50 in the experiment with IGROV-1, in the experiment on LOX IMVI, with COLO 205, in the experiment with OVCAR-4, with RPMI-8226 and in the experiment with SK-OV-3 was > 10 µM (inactive) each time. Besides, the GI50 in the experiment on MOLT-4, in the experiment on OVCAR-8, in the experiment with UACC-257, in the experiment on A498, in the experiment with SF-295 and in the experiment on SK-MEL-28 was > 10 µM (inactive) in each case. The GI50 with U-251 and in the experiment with SK-MEL-2 was > 10 µM (inactive) each time.
`Nc1nc2cc(COc3ccc(C(=O)O)cc3)ccc2nc1-c1ccccc1`: the GI50 in the experiment with A549, with CCRF-CEM, with OVCAR-5, in the experiment on SW-620, with SNB-19 and in the experiment with HT-29 was > 10 µM (inactive) throughout. The GI50 in the experiment on IGROV-1, in the experiment on LOX IMVI, in the experiment on COLO 205, with OVCAR-4, in the experiment with RPMI-8226 and with SK-OV-3 was > 10 µM (inactive) each time. Besides, the GI50 in the experiment with MOLT-4, in the experiment with UACC-257, with SF-295, in the experiment with SK-MEL-28, in the experiment on U-251 and in the experiment on SK-MEL-2 was > 10 µM (inactive) throughout.
On to `Cc1cc(N(CCOS(C)(=O)=O)CCOS(C)(=O)=O)ccc1C=O`, for which the GI50 with A549 was 0.979 µM (active); with CCRF-CEM, 1.08 µM (active); in the experiment on OVCAR-5, 6.7 µM (inactive); in the experiment with SW-620, 0.449 µM (active); in the experiment with SNB-19, 10.2 µM (inactive); in the experiment with HT-29 it was 4.49 µM (inactive). The GI50 was 11.7 µM (inactive) in the experiment with IGROV-1; 6.68 µM (inactive) in the experiment with LOX IMVI; 1.39 µM (inactive) with COLO 205; 18.2 µM (inactive) with OVCAR-4; 4.02 µM (inactive) with RPMI-8226; 1.61 µM (inactive) with MOLT-4. In addition, the GI50 in the experiment with OVCAR-8 was 10.9 µM (inactive); in the experiment on UACC-257, 11.7 µM (inactive); in the experiment on A498, 1.85 µM (inactive); in the experiment on SF-295, 4.35 µM (inactive); in the experiment on SK-MEL-28, 3.68 µM (inactive); in the experiment with U-251, 8.36 µM (inactive). Also, the GI50 in the experiment with SK-MEL-2 is 21.1 µM (inactive).
On to `CCOC(=O)C1=C(C)N(NC(N)=O)C2(O)CCCC(=O)C12C` (stereo not given), for which the GI50 with A549, with OVCAR-5, in the experiment on SW-620, with SNB-19, in the experiment on HT-29 and in the experiment on IGROV-1 was > 100 µM (inactive) each time. The GI50 in the experiment with LOX IMVI, in the experiment with COLO 205, in the experiment with OVCAR-4, in the experiment on RPMI-8226, in the experiment with SK-OV-3 and in the experiment with OVCAR-8 was > 100 µM (inactive) in each case. Further, the GI50 with UACC-257, in the experiment with A498, in the experiment on SF-295, in the experiment with SK-MEL-28, in the experiment on U-251 and in the experiment with SK-MEL-2 was > 100 µM (inactive) in each case.
Turning to `CC(=O)NC(c1nc2cc(C)c(C)cc2[nH]1)c1nc2cc(C)c(C)cc2[nH]1`, the GI50 with A549 was 21.3 µM (inactive); with CCRF-CEM, 7.05 µM (inactive); in the experiment with OVCAR-5, 41.7 µM (inactive); in the experiment with SW-620, 22.3 µM (inactive); in the experiment on SNB-19, 41.5 µM (inactive); with HT-29 it was 15.2 µM (inactive). Besides, the GI50 was 11.7 µM (inactive) with IGROV-1; 19 µM (inactive) with LOX IMVI; 18 µM (inactive) with COLO 205; 21.9 µM (inactive) in the experiment with OVCAR-4; 4.57 µM (inactive) with RPMI-8226; 17.7 µM (inactive) with SK-OV-3. Also, the GI50 was 2.86 µM (inactive) with MOLT-4; 20 µM (inactive) with OVCAR-8; 21.3 µM (inactive) in the experiment on UACC-257; 17.9 µM (inactive) with A498; 22.4 µM (inactive) in the experiment with SF-295; 17.7 µM (inactive) in the experiment with SK-MEL-28. The GI50 with U-251 was 20.9 µM (inactive); with SK-MEL-2, 36.8 µM (inactive).
`CC1(c2sccc2Cl)CC(c2sccc2Cl)=C(C#N)C(=C(C#N)C#N)N1` (stereo not given): the GI50 was 24.7 µM (inactive) in the experiment with A549; 38.4 µM (inactive) in the experiment on CCRF-CEM; 22.3 µM (inactive) in the experiment with OVCAR-5; 18.8 µM (inactive) with SW-620; 18.3 µM (inactive) in the experiment on SNB-19; 24 µM (inactive) with HT-29. Moreover, the GI50 was 23 µM (inactive) in the experiment on IGROV-1; 19.2 µM (inactive) with LOX IMVI; 23.1 µM (inactive) in the experiment with COLO 205; 25.1 µM (inactive) in the experiment on OVCAR-4; 36.1 µM (inactive) in the experiment with RPMI-8226; 17.5 µM (inactive) in the experiment on SK-OV-3. The GI50 is 38.7 µM (inactive) with MOLT-4; 20.8 µM (inactive) in the experiment with OVCAR-8; 22.4 µM (inactive) with UACC-257; 18 µM (inactive) with A498; 17.9 µM (inactive) in the experiment with SF-295; 18.2 µM (inactive) in the experiment on SK-MEL-28. Moreover, the results for the GI50 in the experiment on U-251 and in the experiment on SK-MEL-2 were 18.5 µM (inactive) and 20.3 µM (inactive), respectively.

(Values after ChEMBL document CHEMBL1201862, “PubChem BioAssay data set” (2004).)
